# Laboratory results published in US20230085307A1, “PYRIDAZINONE COMPOUND AND HERBICIDE” (NISSAN CHEMICAL CORPORATION, priority 2019, published 2023).
# Legend:
# southern crabgrass [1] = assay: Test Example 5: herbicidal effect by foliage application, plastic box (Table 20, symbol F); type: in vivo, southern crabgrass (Digitaria ciliaris); details: foliage application, 320 g/ha, three weeks after application
# In short: (§1)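 Sow seeds spot-wise in sterilized diluvial soil; cover with ~1.5 cm soil. Grow 14 days in greenhouse, 25° C. to 30° C. Spray foliage with emulsion diluted to predetermined amount. Rate effect after 3 weeks.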
# southern crabgrass [2] = assay: Test Example 4: herbicidal effect by soil treatment (Table 19, symbol F); type: in vivo, southern crabgrass (Digitaria ciliaris); details: amount of applied herbicide 320 g/ha
# In short: (§2)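 Applied as a water-diluted emulsion, the compound was sprayed onto soil covering newly sown seeds. Evaluation came three weeks after application, in a greenhouse held at 25° C. to 30° C.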
# barnyard grass [3] = assay: Test Example 4: herbicidal effect by soil treatment (Table 19, symbol H); type: in vivo, barnyard grass (Echinochloa crus-galli); details: amount of applied herbicide 320 g/ha
# In short: as §2
# barnyard grass [4] = assay: Test Example 5: herbicidal effect by foliage application, plastic box (Table 20, symbol H); type: in vivo, barnyard grass (Echinochloa crus-galli); details: foliage application, 320 g/ha, three weeks after application
# In short: as §1
# redroot pigweed [5] = assay: Test Example 4: herbicidal effect by soil treatment (Table 19, symbol N); type: in vivo, redroot pigweed (Amaranthus retroflexus); details: amount of applied herbicide 320 g/ha
# In short: as §2
# windgrass [6] = assay: Test Example 5: herbicidal effect by foliage application, plastic box (Table 20, symbol L); type: in vivo, windgrass (Apera spica-venti); details: foliage application, 320 g/ha, three weeks after application
# In short: as §1
# wild oat [7] = assay: Test Example 5: herbicidal effect by foliage application, plastic box (Table 20, symbol I); type: in vivo, wild oat (Avena fatua); details: foliage application, 320 g/ha, three weeks after application
# In short: as §1
# lambsquarters [8] = assay: Test Example 4: herbicidal effect by soil treatment (Table 19, symbol O); type: in vivo, lambsquarters (Chenopodium album); details: amount of applied herbicide 320 g/ha
# In short: as §2
# lambsquarters [9] = assay: Test Example 5: herbicidal effect by foliage application, plastic box (Table 20, symbol O); type: in vivo, lambsquarters (Chenopodium album); details: foliage application, 320 g/ha, three weeks after application
# In short: as §1
# rice flat sedge = assay: Test Example 3: herbicidal effect by foliage application, Wagner pot (Table 18, symbol E); type: in vivo, rice flat sedge (Cyperus iria)
# In short: (§3)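 Plants were sown in alluvial soil held under 0.1–0.5 cm standing water and grown 14 days in a greenhouse at 25–30 °C. An emulsifiable formulation, water-diluted to the set dose, was then sprayed onto the foliage, and effects were scored three weeks later using previously defined criteria.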
# persian speedwell [10] = assay: Test Example 4: herbicidal effect by soil treatment (Table 19, symbol R); type: in vivo, Persian speedwell (Veronica persica); details: amount of applied herbicide 320 g/ha
# In short: as §2
# green foxtail [11] = assay: Test Example 5: herbicidal effect by foliage application, plastic box (Table 20, symbol G); type: in vivo, green foxtail (Setaria viridis); details: foliage application, 320 g/ha, three weeks after application
# In short: as §1
# persian speedwell [12] = assay: Test Example 5: herbicidal effect by foliage application, plastic box (Table 20, symbol R); type: in vivo, Persian speedwell (Veronica persica); details: foliage application, 320 g/ha, three weeks after application
# In short: as §1
# blackgrass [13] = assay: Test Example 4: herbicidal effect by soil treatment (Table 19, symbol J); type: in vivo, blackgrass (Alopecurus myosuroides); details: amount of applied herbicide 320 g/ha
# In short: as §2
# chickweed [14] = assay: Test Example 4: herbicidal effect by soil treatment (Table 19, symbol P); type: in vivo, common chickweed (Stellaria media); details: amount of applied herbicide 320 g/ha
# In short: as §2
# windgrass [15] = assay: Test Example 4: herbicidal effect by soil treatment (Table 19, symbol L); type: in vivo, windgrass (Apera spica-venti); details: amount of applied herbicide 320 g/ha
# In short: as §2
# chickweed [16] = assay: Test Example 5: herbicidal effect by foliage application, plastic box (Table 20, symbol P); type: in vivo, common chickweed (Stellaria media); details: foliage application, 320 g/ha, three weeks after application
# In short: as §1
# Chinese sprangletop = assay: Test Example 3: herbicidal effect by foliage application, Wagner pot (Table 18, symbol D); type: in vivo, chinese sprangletop (Leptochloa chinensis)
# In short: as §3
# wild oat [17] = assay: Test Example 4: herbicidal effect by soil treatment (Table 19, symbol I); type: in vivo, wild oat (Avena fatua); details: amount of applied herbicide 320 g/ha
# In short: as §2
# false cleavers = assay: Test Example 4: herbicidal effect by soil treatment (Table 19, symbol Q); type: in vivo, false cleavers (Galium spurium); details: amount of applied herbicide 320 g/ha
# In short: as §2
# redroot pigweed [18] = assay: Test Example 5: herbicidal effect by foliage application, plastic box (Table 20, symbol N); type: in vivo, redroot pigweed (Amaranthus retroflexus); details: foliage application, 320 g/ha, three weeks after application
# In short: as §1
# velvetleaf [19] = assay: Test Example 4: herbicidal effect by soil treatment (Table 19, symbol M); type: in vivo, velvetleaf (Abutilon theophrasti); details: amount of applied herbicide 320 g/ha
# In short: as §2
# velvetleaf [20] = assay: Test Example 5: herbicidal effect by foliage application, plastic box (Table 20, symbol M); type: in vivo, velvetleaf (Abutilon theophrasti); details: foliage application, 320 g/ha, three weeks after application
# In short: as §1
# blackgrass [21] = assay: Test Example 5: herbicidal effect by foliage application, plastic box (Table 20, symbol J); type: in vivo, blackgrass (Alopecurus myosuroides); details: foliage application, 320 g/ha, three weeks after application
# In short: as §1
# barnyard grass [22] = assay: Test Example 3: herbicidal effect by foliage application, Wagner pot (Table 18, symbol H); type: in vivo, barnyard grass (Echinochloa crus-galli)
# In short: as §3
# Italian ryegrass [23] = assay: Test Example 5: herbicidal effect by foliage application, plastic box (Table 20, symbol K); type: in vivo, Italian ryegrass (Lolium multiflorum); details: foliage application, 320 g/ha, three weeks after application
# In short: as §1
# green foxtail [24] = assay: Test Example 4: herbicidal effect by soil treatment (Table 19, symbol G); type: in vivo, green foxtail (Setaria viridis); details: amount of applied herbicide 320 g/ha
# In short: as §2
# Italian ryegrass [25] = assay: Test Example 4: herbicidal effect by soil treatment (Table 19, symbol K); type: in vivo, Italian ryegrass (Lolium multiflorum); details: amount of applied herbicide 320 g/ha
# In short: as §2
# [26] = amount of applied herbicide 320 g/ha
smiles,measurement,setting,value
CC(=O)CSc1ccc(-c2sc3ccc(F)cc3c2-c2c(O)c(C)nn(C)c2=O)cc1 [2-424],"F: southern crabgrass, herbicidal effect grade",southern crabgrass [1],3 (Herbicidal rate of 40% or more and less than 70%)
same,"herbicidal effect, F: southern crabgrass",southern crabgrass [2],0 (Herbicidal rate of 5% or less (almost no effect))
same,"herbicidal effect, H: barnyard grass",barnyard grass [3],0 (Herbicidal rate of 5% or less (almost no effect))
same,"H: barnyard grass, herbicidal effect grade",barnyard grass [4],5 (Herbicidal rate of 90% or more (almost completely withered))
same,"herbicidal effect, N: redroot pigweed",redroot pigweed [5],4 (Herbicidal rate of 70% or more and less than 90%)
same,"L: windgrass, herbicidal effect grade",windgrass [6],4 (Herbicidal rate of 70% or more and less than 90%)
same,"I: wild oat, herbicidal effect grade",wild oat [7],4 (Herbicidal rate of 70% or more and less than 90%)
same,"herbicidal effect, O: lambsquarters",lambsquarters [8],3 (Herbicidal rate of 40% or more and less than 70%)
same,"O: lambsquarters, herbicidal effect grade",lambsquarters [9],3 (Herbicidal rate of 40% or more and less than 70%)
same,herbicidal effect on E: rice flat sedge,rice flat sedge; [26],4 (Herbicidal rate of 70% or more and less than 90%)
same,"herbicidal effect, R: persian speedwell",persian speedwell [10],0 (Herbicidal rate of 5% or less (almost no effect))
same,"G: green foxtail, herbicidal effect grade",green foxtail [11],3 (Herbicidal rate of 40% or more and less than 70%)
same,"R: persian speedwell, herbicidal effect grade",persian speedwell [12],4 (Herbicidal rate of 70% or more and less than 90%)
same,"herbicidal effect, J: blackgrass",blackgrass [13],0 (Herbicidal rate of 5% or less (almost no effect))
same,"herbicidal effect, P: chickweed",chickweed [14],0 (Herbicidal rate of 5% or less (almost no effect))
same,"herbicidal effect, L: windgrass",windgrass [15],0 (Herbicidal rate of 5% or less (almost no effect))
same,"P: chickweed, herbicidal effect grade",chickweed [16],5 (Herbicidal rate of 90% or more (almost completely withered))
same,herbicidal effect on D: Chinese sprangletop,Chinese sprangletop; [26],3 (Herbicidal rate of 40% or more and less than 70%)
same,"herbicidal effect, I: wild oat",wild oat [17],0 (Herbicidal rate of 5% or less (almost no effect))
same,"herbicidal effect, Q: false cleavers",false cleavers,0 (Herbicidal rate of 5% or less (almost no effect))
same,"N: redroot pigweed, herbicidal effect grade",redroot pigweed [18],5 (Herbicidal rate of 90% or more (almost completely withered))
same,"herbicidal effect, M: velvetleaf",velvetleaf [19],2 (Herbicidal rate of 20% or more and less than 40%)
same,"M: velvetleaf, herbicidal effect grade",velvetleaf [20],3 (Herbicidal rate of 40% or more and less than 70%)
same,"J: blackgrass, herbicidal effect grade",blackgrass [21],3 (Herbicidal rate of 40% or more and less than 70%)
same,herbicidal effect on H: barnyard grass,barnyard grass [22]; [26],5 (Herbicidal rate of 90% or more (almost completely withered))
same,"K: Italian ryegrass, herbicidal effect grade",Italian ryegrass [23],1 (Herbicidal rate of 5% or more and less than 20%)
same,"herbicidal effect, G: green foxtail",green foxtail [24],0 (Herbicidal rate of 5% or less (almost no effect))
same,"herbicidal effect, K: Italian ryegrass",Italian ryegrass [25],0 (Herbicidal rate of 5% or less (almost no effect))
Cc1nn(C)c(=O)c(-c2c(-c3ccc(OC(F)(F)F)cc3)sc3cc(F)ccc23)c1O [3-143],"F: southern crabgrass, herbicidal effect grade",southern crabgrass [1],1 (Herbicidal rate of 5% or more and less than 20%)
same,"Herbicidal effect by soil treatment, F: southern crabgrass",southern crabgrass [2],0 (Herbicidal rate of 5% or less (almost no effect))
same,"Herbicidal effect by soil treatment, H: barnyard grass",barnyard grass [3],0 (Herbicidal rate of 5% or less (almost no effect))
same,"H: barnyard grass, herbicidal effect grade",barnyard grass [4],4 (Herbicidal rate of 70% or more and less than 90%)
same,"Herbicidal effect by soil treatment, N: redroot pigweed",redroot pigweed [5],4 (Herbicidal rate of 70% or more and less than 90%)
same,"L: windgrass, herbicidal effect grade",windgrass [6],5 (Herbicidal rate of 90% or more (almost completely withered))
same,"I: wild oat, herbicidal effect grade",wild oat [7],0 (Herbicidal rate of 5% or less (almost no effect))
same,"Herbicidal effect by soil treatment, O: lambsquarters",lambsquarters [8],4 (Herbicidal rate of 70% or more and less than 90%)
same,"O: lambsquarters, herbicidal effect grade",lambsquarters [9],5 (Herbicidal rate of 90% or more (almost completely withered))
same,herbicidal effect on rice flat sedge (E),rice flat sedge; 320 g/ha,5 (Herbicidal rate of 90% or more (almost completely withered))
same,"Herbicidal effect by soil treatment, R: persian speedwell",persian speedwell [10],3 (Herbicidal rate of 40% or more and less than 70%)
same,"G: green foxtail, herbicidal effect grade",green foxtail [11],4 (Herbicidal rate of 70% or more and less than 90%)
same,"R: persian speedwell, herbicidal effect grade",persian speedwell [12],5 (Herbicidal rate of 90% or more (almost completely withered))
same,"Herbicidal effect by soil treatment, J: blackgrass",blackgrass [13],0 (Herbicidal rate of 5% or less (almost no effect))
same,"Herbicidal effect by soil treatment, P: chickweed",chickweed [14],0 (Herbicidal rate of 5% or less (almost no effect))
same,"Herbicidal effect by soil treatment, L: windgrass",windgrass [15],4 (Herbicidal rate of 70% or more and less than 90%)
same,"P: chickweed, herbicidal effect grade",chickweed [16],5 (Herbicidal rate of 90% or more (almost completely withered))
same,herbicidal effect on Chinese sprangletop (D),Chinese sprangletop; 320 g/ha,4 (Herbicidal rate of 70% or more and less than 90%)
same,"Herbicidal effect by soil treatment, I: wild oat",wild oat [17],0 (Herbicidal rate of 5% or less (almost no effect))
same,"Herbicidal effect by soil treatment, Q: false cleavers",false cleavers,3 (Herbicidal rate of 40% or more and less than 70%)
same,"N: redroot pigweed, herbicidal effect grade",redroot pigweed [18],5 (Herbicidal rate of 90% or more (almost completely withered))
same,"Herbicidal effect by soil treatment, M: velvetleaf",velvetleaf [19],0 (Herbicidal rate of 5% or less (almost no effect))
same,"M: velvetleaf, herbicidal effect grade",velvetleaf [20],5 (Herbicidal rate of 90% or more (almost completely withered))
same,"J: blackgrass, herbicidal effect grade",blackgrass [21],5 (Herbicidal rate of 90% or more (almost completely withered))
same,herbicidal effect on barnyard grass (H),barnyard grass [22]; 320 g/ha,5 (Herbicidal rate of 90% or more (almost completely withered))
same,"K: Italian ryegrass, herbicidal effect grade",Italian ryegrass [23],5 (Herbicidal rate of 90% or more (almost completely withered))
same,"Herbicidal effect by soil treatment, G: green foxtail",green foxtail [24],2 (Herbicidal rate of 20% or more and less than 40%)
same,"Herbicidal effect by soil treatment, K: Italian ryegrass",Italian ryegrass [25],0 (Herbicidal rate of 5% or less (almost no effect))
